Calls of active or inactive are those of the source. Rule as the data show it, for most assays here: actives have a measured Kd and inactives only a lower limit.
What was measured:
[1] = target: T1, Succinate--CoA ligase [ADP-forming] subunit beta, mitochondrial (Homo sapiens, UniProt Q9P2R7)
T1 sequence (Q9P2R7 whole entry): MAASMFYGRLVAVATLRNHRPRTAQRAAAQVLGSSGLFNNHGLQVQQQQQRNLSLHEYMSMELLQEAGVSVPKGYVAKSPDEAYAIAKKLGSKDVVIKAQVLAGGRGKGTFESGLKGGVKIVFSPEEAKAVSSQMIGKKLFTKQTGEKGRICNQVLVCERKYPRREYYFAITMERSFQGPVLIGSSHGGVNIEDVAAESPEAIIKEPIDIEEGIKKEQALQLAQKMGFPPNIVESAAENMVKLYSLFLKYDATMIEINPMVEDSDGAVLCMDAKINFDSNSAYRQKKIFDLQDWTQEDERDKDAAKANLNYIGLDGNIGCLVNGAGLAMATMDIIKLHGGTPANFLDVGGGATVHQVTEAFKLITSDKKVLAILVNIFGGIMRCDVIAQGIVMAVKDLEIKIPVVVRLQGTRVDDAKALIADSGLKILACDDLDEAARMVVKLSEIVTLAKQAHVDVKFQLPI

[2] = target: T2, Mitogen-activated protein kinase kinase kinase kinase 3 (Homo sapiens, UniProt Q8IVH8)
T2 sequence (Q8IVH8 whole entry): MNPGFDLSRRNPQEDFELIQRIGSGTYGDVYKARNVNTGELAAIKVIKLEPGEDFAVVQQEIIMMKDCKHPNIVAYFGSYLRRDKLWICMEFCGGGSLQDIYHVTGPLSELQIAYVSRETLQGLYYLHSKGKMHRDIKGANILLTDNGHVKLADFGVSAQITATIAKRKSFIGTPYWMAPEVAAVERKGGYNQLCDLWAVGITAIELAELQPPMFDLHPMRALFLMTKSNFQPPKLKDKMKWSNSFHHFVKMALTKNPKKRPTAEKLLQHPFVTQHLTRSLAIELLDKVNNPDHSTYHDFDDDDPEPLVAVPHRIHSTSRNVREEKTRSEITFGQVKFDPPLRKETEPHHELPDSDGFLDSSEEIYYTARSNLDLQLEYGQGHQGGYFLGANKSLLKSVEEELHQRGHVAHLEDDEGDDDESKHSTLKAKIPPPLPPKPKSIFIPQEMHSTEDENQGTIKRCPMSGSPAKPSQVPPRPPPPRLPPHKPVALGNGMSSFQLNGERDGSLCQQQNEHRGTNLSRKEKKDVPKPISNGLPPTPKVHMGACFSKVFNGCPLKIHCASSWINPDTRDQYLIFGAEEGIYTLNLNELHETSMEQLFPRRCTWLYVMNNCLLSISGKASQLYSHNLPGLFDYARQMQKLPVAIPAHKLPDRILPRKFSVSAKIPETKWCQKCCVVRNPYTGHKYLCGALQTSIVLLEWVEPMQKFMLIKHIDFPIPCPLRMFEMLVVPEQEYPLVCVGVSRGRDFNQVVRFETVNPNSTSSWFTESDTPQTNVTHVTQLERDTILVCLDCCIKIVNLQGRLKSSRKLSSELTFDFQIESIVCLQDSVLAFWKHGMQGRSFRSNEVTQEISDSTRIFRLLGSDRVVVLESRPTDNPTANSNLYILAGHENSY

[3] = target: Mitogen-activated protein kinase 7 (Homo sapiens, UniProt Q13164)
Sequence of Mitogen-activated protein kinase 7 (Q13164 whole entry): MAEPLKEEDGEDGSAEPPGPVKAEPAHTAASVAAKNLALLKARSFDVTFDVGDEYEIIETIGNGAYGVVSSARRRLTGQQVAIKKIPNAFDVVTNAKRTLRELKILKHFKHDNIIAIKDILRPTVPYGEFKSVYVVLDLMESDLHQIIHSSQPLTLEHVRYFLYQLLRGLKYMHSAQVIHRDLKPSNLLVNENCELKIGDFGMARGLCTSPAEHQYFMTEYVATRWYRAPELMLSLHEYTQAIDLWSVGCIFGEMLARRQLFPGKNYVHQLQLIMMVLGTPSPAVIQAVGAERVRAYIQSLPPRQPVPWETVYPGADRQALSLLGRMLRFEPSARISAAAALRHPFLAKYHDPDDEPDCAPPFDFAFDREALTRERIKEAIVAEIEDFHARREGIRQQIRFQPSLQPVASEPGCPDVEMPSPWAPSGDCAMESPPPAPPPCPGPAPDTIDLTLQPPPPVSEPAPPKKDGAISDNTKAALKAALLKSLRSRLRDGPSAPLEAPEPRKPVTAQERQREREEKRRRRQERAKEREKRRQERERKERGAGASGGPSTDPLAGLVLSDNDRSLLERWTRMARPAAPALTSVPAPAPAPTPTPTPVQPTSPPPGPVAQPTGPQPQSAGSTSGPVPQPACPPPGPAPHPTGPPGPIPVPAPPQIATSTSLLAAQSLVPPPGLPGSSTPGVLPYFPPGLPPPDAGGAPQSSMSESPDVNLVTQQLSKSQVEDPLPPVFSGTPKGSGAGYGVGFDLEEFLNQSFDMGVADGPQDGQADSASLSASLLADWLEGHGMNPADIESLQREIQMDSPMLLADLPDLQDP

Aurora kinase B = Aurora kinase B (Homo sapiens, UniProt Q96GD4)
Sequence of Aurora kinase B (Q96GD4 whole entry): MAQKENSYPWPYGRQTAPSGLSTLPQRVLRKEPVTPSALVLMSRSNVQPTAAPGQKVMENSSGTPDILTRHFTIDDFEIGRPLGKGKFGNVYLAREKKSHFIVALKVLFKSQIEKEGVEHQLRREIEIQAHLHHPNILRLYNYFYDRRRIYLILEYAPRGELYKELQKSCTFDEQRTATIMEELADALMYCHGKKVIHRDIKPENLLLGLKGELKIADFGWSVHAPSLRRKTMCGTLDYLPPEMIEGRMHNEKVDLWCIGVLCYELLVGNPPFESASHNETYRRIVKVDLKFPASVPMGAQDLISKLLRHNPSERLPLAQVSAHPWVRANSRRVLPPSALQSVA

[4] = target: 5'-AMP-activated protein kinase catalytic subunit alpha-1 (Homo sapiens, UniProt Q13131)
Sequence of 5'-AMP-activated protein kinase catalytic subunit alpha-1 (Q13131 whole entry): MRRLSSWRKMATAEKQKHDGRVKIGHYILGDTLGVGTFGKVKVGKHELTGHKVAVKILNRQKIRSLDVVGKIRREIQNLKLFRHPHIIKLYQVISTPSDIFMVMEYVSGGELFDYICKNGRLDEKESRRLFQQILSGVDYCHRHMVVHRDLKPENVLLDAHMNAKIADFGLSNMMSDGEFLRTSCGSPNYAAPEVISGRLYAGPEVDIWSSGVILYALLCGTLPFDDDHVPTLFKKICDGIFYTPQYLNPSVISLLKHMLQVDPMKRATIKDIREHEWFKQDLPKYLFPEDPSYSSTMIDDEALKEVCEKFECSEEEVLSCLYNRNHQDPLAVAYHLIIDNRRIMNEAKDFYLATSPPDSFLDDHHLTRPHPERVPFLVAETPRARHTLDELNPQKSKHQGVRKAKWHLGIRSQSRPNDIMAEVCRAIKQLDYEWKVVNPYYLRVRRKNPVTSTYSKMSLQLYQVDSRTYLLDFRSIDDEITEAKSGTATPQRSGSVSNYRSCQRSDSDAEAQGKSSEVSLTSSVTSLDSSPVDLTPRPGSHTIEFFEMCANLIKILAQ

[5] = target: Protein-tyrosine kinase 6 (Homo sapiens, UniProt Q13882)
Sequence of Protein-tyrosine kinase 6 (Q13882 whole entry): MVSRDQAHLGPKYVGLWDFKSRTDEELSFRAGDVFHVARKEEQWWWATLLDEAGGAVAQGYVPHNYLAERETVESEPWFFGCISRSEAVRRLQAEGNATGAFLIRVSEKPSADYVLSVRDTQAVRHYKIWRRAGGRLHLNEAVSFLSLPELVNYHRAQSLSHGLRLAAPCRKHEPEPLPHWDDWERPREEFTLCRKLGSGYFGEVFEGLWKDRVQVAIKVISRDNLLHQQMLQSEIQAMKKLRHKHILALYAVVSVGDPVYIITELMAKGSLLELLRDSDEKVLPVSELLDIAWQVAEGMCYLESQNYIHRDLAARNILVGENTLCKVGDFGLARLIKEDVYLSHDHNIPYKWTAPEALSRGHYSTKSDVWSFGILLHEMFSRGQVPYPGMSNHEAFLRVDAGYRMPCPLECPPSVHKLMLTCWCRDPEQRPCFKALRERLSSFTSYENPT

Activin receptor type-2B = Activin receptor type-2B (Homo sapiens, UniProt Q13705)
Sequence of Activin receptor type-2B (Q13705 whole entry, the tested form may be a part): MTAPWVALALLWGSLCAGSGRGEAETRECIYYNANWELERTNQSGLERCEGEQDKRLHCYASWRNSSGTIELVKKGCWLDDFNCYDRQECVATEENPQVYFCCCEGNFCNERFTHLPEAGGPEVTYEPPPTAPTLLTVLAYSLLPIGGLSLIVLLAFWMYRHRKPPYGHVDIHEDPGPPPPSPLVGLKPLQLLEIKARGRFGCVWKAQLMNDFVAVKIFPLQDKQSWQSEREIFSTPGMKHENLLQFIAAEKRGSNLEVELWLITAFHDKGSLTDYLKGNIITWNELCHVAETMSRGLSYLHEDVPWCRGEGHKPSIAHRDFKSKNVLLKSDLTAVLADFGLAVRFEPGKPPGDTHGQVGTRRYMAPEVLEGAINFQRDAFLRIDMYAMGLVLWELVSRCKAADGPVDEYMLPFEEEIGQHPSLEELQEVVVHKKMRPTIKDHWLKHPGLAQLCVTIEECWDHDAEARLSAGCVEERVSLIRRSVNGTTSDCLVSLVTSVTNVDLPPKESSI

LIM domain kinase 2 = LIM domain kinase 2 (Homo sapiens, UniProt P53671)
Sequence of LIM domain kinase 2 (P53671 whole entry, the tested form may be a part): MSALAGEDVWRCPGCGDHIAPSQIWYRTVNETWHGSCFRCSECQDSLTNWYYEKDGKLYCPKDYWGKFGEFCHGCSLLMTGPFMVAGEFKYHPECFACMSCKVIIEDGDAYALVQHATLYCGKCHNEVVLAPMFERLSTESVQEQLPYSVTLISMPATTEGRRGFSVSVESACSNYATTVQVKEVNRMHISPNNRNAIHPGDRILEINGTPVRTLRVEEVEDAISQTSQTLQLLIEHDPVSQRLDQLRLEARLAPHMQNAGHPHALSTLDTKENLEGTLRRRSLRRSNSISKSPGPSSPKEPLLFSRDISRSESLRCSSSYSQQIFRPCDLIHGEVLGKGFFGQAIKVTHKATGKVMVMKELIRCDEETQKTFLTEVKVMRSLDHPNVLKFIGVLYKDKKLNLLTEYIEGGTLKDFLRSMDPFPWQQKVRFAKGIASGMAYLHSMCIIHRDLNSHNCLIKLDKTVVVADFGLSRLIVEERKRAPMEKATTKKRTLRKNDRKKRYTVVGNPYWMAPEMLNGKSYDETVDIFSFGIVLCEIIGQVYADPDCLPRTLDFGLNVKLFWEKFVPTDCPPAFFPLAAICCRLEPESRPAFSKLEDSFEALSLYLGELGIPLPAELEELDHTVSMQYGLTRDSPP

[6] = target: Rho-associated protein kinase 1 (Homo sapiens, UniProt Q13464)
[7] = target: Mitogen-activated protein kinase 11 (Homo sapiens, UniProt Q15759)
Sequence of Mitogen-activated protein kinase 11 (Q15759 whole entry): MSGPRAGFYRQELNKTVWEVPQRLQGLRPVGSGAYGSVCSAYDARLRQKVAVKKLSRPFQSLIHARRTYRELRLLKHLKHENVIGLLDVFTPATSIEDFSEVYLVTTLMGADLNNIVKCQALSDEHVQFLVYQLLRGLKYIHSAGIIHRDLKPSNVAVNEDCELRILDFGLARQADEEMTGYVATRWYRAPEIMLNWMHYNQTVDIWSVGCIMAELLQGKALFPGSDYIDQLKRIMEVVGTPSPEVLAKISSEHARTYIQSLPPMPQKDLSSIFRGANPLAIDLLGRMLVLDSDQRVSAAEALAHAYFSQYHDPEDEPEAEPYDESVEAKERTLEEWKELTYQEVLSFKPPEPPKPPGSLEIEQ

[8] = target: Tyrosine-protein kinase HCK (Homo sapiens, UniProt P08631)
LIM domain kinase 1 = LIM domain kinase 1 (Homo sapiens, UniProt P53667)
Sequence of LIM domain kinase 1 (P53667 whole entry, the tested form may be a part): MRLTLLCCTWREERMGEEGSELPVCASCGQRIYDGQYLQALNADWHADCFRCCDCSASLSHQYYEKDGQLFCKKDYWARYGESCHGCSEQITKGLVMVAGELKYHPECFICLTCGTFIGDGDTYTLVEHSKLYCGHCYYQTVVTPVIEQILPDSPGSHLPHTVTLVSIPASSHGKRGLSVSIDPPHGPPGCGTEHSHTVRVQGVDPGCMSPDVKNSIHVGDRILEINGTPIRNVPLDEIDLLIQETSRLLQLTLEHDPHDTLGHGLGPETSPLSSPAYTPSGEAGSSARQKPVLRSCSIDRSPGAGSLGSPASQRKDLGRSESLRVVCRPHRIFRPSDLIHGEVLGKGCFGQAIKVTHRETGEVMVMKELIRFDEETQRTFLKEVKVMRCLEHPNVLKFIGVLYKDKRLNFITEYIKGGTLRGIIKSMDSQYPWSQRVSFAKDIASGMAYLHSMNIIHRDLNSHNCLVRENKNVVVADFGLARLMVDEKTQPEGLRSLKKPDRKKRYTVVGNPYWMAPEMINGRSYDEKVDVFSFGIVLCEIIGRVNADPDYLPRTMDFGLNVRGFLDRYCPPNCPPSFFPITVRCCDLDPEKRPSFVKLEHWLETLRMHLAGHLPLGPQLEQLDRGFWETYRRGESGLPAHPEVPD

[9] = target: Mitogen-activated protein kinase 8 (Homo sapiens, UniProt P45983)
Sequence of Mitogen-activated protein kinase 8 (P45983 whole entry): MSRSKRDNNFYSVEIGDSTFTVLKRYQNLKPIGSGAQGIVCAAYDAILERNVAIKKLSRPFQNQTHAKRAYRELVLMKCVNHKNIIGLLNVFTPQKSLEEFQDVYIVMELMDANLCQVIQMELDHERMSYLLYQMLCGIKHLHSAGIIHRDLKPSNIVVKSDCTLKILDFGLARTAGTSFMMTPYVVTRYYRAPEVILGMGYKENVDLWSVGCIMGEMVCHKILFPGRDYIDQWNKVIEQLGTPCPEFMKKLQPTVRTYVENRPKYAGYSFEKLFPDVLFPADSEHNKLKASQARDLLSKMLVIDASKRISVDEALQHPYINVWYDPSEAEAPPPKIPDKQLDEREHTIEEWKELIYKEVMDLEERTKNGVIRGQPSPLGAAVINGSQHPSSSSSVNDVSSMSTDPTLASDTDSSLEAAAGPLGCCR

[10] = target: T3, Adenine phosphoribosyltransferase (Homo sapiens, UniProt P07741)
T3 sequence (P07741 whole entry): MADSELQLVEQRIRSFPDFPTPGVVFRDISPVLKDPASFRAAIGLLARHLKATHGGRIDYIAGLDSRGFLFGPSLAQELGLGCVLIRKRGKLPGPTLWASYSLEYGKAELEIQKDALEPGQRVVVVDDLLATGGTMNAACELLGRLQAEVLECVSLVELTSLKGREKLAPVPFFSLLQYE

GTP-binding protein 4 = GTP-binding protein 4 (Homo sapiens, UniProt Q9BZE4)
[11] = target: T4, Phosphatidylinositol 5-phosphate 4-kinase type-2 alpha (Homo sapiens, UniProt P48426)
T4 sequence (P48426 whole entry): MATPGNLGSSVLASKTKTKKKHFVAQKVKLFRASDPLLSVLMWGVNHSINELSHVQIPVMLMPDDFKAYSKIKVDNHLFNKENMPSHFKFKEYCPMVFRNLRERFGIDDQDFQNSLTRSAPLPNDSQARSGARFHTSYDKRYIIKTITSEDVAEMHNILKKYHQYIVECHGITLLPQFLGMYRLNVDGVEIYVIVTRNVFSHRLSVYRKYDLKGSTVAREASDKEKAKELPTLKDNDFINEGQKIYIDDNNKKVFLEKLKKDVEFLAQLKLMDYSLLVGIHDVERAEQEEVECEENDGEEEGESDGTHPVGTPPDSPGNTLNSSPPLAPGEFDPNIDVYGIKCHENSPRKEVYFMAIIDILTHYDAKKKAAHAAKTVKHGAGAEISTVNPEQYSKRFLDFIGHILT

[12] = target: PAS domain-containing serine/threonine-protein kinase (Homo sapiens, UniProt Q96RG2)
Also: in the data inactive means no Kd found up to 30 µM.

SMILES | Kd [1] | Kd [2] | Kd [3] | Kd (Aurora kinase B) | Kd [4] | Kd [5] | Kd (Activin receptor type-2B) | Kd (LIM domain kinase 2) | Kd [6] | Kd [7] | Kd [8] | Kd (LIM domain kinase 1) | Kd [9] | Kd [10] | Kd (GTP-binding protein 4) | Kd [11] | Kd [12]
Nc1ncnc2c1c(-c1cccc(OCc3ccccc3)c1)cn2[C@H]1C[C@@H](CN2CCC2)C1 [AEW-541] | > 30 µM (inactive) | > 30 µM (inactive) | > 30 µM (inactive) | > 30 µM (inactive) | > 30 µM (inactive) | 1.94 µM (active) | > 30 µM (inactive) | > 30 µM (inactive) | > 30 µM (inactive) | > 30 µM (inactive) | 0.623 µM (active) | > 30 µM (inactive) | > 30 µM (inactive) | – | – | – | –
Cc1csc(-c2nnc(Nc3ccc(Oc4ncccc4-c4ccnc(N)n4)cc3)c3ccccc23)c1 [AMG-900] | – | > 30 µM (inactive) | > 30 µM (inactive) | 0.02 µM (active) | > 30 µM (inactive) | > 30 µM (inactive) | > 30 µM (inactive) | > 30 µM (inactive) | > 30 µM (inactive) | > 30 µM (inactive) | > 30 µM (inactive) | > 30 µM (inactive) | > 30 µM (inactive) | > 30 µM (inactive) | > 30 µM (inactive) | > 30 µM (inactive) | –
N#CC1(c2ccc(NC(=O)c3cccnc3NCc3ccncc3)cc2)CCCC1 [RIVOCERANIB] | > 30 µM (inactive) | > 30 µM (inactive) | > 30 µM (inactive) | > 30 µM (inactive) | > 30 µM (inactive) | > 30 µM (inactive) | > 30 µM (inactive) | > 30 µM (inactive) | – | > 30 µM (inactive) | > 30 µM (inactive) | > 30 µM (inactive) | > 30 µM (inactive) | > 30 µM (inactive) | > 30 µM (inactive) | > 30 µM (inactive) | > 30 µM (inactive)

More lines, now with the values ahead:

Kd [1] | Kd [2] | Kd [3] | Kd (Aurora kinase B) | Kd [4] | Kd [5] | Kd (Activin receptor type-2B) | Kd (LIM domain kinase 2) | Kd [6] | Kd [7] | Kd [8] | Kd (LIM domain kinase 1) | Kd [9] | Kd [10] | Kd (GTP-binding protein 4) | Kd [11] | Kd [12] | SMILES
> 30 µM (inactive) | > 30 µM (inactive) | > 30 µM (inactive) | > 30 µM (inactive) | > 30 µM (inactive) | > 30 µM (inactive) | > 30 µM (inactive) | > 30 µM (inactive) | – | > 30 µM (inactive) | > 30 µM (inactive) | > 30 µM (inactive) | > 30 µM (inactive) | > 30 µM (inactive) | > 30 µM (inactive) | > 30 µM (inactive) | > 30 µM (inactive) | O=c1[nH]ccc2cc(OC3CCNCC3)ccc12 [SAR-407899 FREE BASE]
> 30 µM (inactive) | > 30 µM (inactive) | > 30 µM (inactive) | > 30 µM (inactive) | > 30 µM (inactive) | > 30 µM (inactive) | > 30 µM (inactive) | > 30 µM (inactive) | – | > 30 µM (inactive) | > 30 µM (inactive) | > 30 µM (inactive) | > 30 µM (inactive) | > 30 µM (inactive) | > 30 µM (inactive) | > 30 µM (inactive) | > 30 µM (inactive) | O=C(Cc1ccc(-c2ccc(OCCN3CCOCC3)cc2)cn1)NCc1ccccc1 [TIRBANIBULIN]
> 30 µM (inactive) | > 30 µM (inactive) | > 30 µM (inactive) | > 30 µM (inactive) | > 30 µM (inactive) | > 30 µM (inactive) | > 30 µM (inactive) | > 30 µM (inactive) | – | > 30 µM (inactive) | > 30 µM (inactive) | > 30 µM (inactive) | > 30 µM (inactive) | > 30 µM (inactive) | > 30 µM (inactive) | > 30 µM (inactive) | > 30 µM (inactive) | C[C@@H](N)c1ccc(C(=O)Nc2ccnc3[nH]ccc23)cc1 [Y-39983]

From ChEMBL document CHEMBL3991601, “The target landscape of clinical kinase drugs” (Science, 2017)
